{
  "source": "patent US20260327211A1",
  "about": "“MODULATORS OF A POTASSIUM CHANNEL AND OF TRPV1 CHANNEL AND USES THEREOF” (Bsense Bio Therapeutics Ltd., priority 2023, published 2026)",
  "key": {"human sensory neurons": {"test_system": "human sensory neurons", "assay": "Human NPC-derived sensory neurons, spontaneous activity", "type": "cell-based", "conditions": "5 μM", "experimental": "Cell culture and differentiation: Human PSC-derived neural progenitor cells (Stem Cell Catalog No. 70901 and 70902) were cultured and expanded on Matrigel coated 6-wells plates, using neuronal progenitor medium containing: Neurobasal media supplemented by non-essential amino-acids, 1%; Glutamax, 1%; B27, 2%, FGF2, 20 ng/mL). hNPC were then plated onto PDL and Matrigel coated 12 mm coverglass at a density of about 50,000 cells/well of a 6 well, in DMEM/F12; 10% KSR; 1% P/S and A83-01 (2 μM) from days 0-5. From days 0-9 the medium contained also CHIR99021 (6 μM). From Day 3-9 the medium included RO4929097 (2 μM) and SU5402 (3 μM). […]\nElectrophysiology: To characterize the neuronal properties with electrophysiology recordings, round small neurons (20-40 μm in diameter) were selected from day 31 and onwards. Cells were monitored for their polarized negative membrane potential and for their ability to evoke consistent spikes train responses to repeated positive current injections as a mark of achieving electrical maturation before testing the effect of the tested compounds on neuronal excitability. Membrane excitability was monitored using current clamp. […]\nThe inhibitory potency of the newly designed compounds as described herein was evaluated based on their ability to reduce the spontaneous neuronal activity."}, "[1]": {"test_system": "Chronic Post-Ischemia Pain (CPIP) rats", "assay": "Chronic Post-Ischemia Pain (CPIP) model, von Frey", "type": "in vivo, rat", "conditions": "100 mg/kg oral, 6 hours post-dose", "experimental": "(§1) All animal experiments were carried out according to the Guide for the Care and Use of Laboratory Animals (2011 edition) and approved by the Israel National Institutional Animal Care and Use Committee (IACUC). Young adult male SD rats (Envigo RMS, Israel), were used for in vivo efficacy: Spared Nerve Injury (SNI), Distal Tibial Injury (DTI) and Post-operative Pain (POP), 200-220 grams, Chronic Post-Ischemia Pain (CPIP) 275-325 grams, Monosodium iodoacetate-induced osteoarthritis (MIA-OA) 180-220 grams; for in vivo safety: 200-250 grams at study initiation. […] The health status of the animals used in this study was examined upon their arrival. Only animals in good health were acclimatized to laboratory conditions and were used in the studies. All studies were performed following at least five days of animal acclimation. During acclimation and throughout the entire study duration, animals were housed within a limited-access rodent facility and kept in groups with a maximum of 2-3 rats per polypropylene cage. The cages were fitted with solid bottoms and filled with sterile wood shavings as bedding material. […] Water was monitored periodically. […]\nOn study day 14, the animal's response to von Frey filaments was measured. […]"}, "[2]": {"test_system": "Distal Tibial Injury (DTI) rats", "assay": "Distal Tibial Injury (DTI) model, von Frey", "type": "in vivo, rat", "conditions": "100 mg/kg oral, 6 hours post-dose", "experimental": "as §1, with “material. Animals were provided ad libitum with a commercial, sterile rodent diet and had free access to drinking water that was supplied to each cage via polyethylene bottles with stainless steel sipper tubes.” for “material.”"}, "dopamine D2": {"molecular_target": "T1, dopamine D2 (Homo sapiens, UniProt P14416)", "T1 construct": "Eurofins DiscoverX, USA", "T1 sequence (P14416 whole entry)": "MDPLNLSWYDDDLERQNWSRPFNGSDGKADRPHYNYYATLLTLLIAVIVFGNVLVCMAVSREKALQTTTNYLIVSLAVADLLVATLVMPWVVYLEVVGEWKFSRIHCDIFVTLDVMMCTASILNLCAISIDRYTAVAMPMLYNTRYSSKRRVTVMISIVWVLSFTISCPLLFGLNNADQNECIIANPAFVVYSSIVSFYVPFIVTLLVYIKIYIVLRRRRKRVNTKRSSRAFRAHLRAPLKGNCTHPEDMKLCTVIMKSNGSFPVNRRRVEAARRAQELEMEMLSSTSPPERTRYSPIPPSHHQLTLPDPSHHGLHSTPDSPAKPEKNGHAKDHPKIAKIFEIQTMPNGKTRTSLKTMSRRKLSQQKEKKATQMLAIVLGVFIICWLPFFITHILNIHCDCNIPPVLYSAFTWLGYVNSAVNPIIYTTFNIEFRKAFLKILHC", "assay": "Functional selectivity panel, dopamine D2", "type": "biochemical", "experimental": "(§2) A broad panel of 78 recombinant targets was tested for pharmacologic activity in vitro through a variety of functional assays (Eurofins DiscoverX, USA), as part of the National Institute of Neurological Disorders and Stroke (NINDS) Preclinical Screening Platform for Pain (PSPP) program. The biological targets for the in vitro profiling have been selected based on avoiding opioid receptor stimulation and targets known to be associated with adverse events or targeted by drugs of abuse. […] For each test, a reference compound was evaluated at the target of interest as a positive control."}, "Bradykynin B1-2": {"test_system": "Bradykynin B1-2", "assay": "Functional screening panel, Bradykynin B1-2", "type": "biochemical", "conditions": "up to 10 micromolar", "experimental": "as §2"}},
  "data": [
    {"smiles": "COC[C@@H](CO)NC(=O)Cc1cc(Sc2c(Cl)cc(F)cc2C(C)C)ccc1F", "note": "[Compound 415]", "values": [
      {"measurement": "Spontaneous activity of human sensory neurons", "setting": "human sensory neurons", "result": "significantly reduced"}
    ]},
    {"smiles": "O=C(Cc1cncc(-n2cc(Cl)c3cc(Cl)cc(Cl)c32)c1)N[C@@H]1COC[C@H]1O", "note": "[Compound 661]", "values": [
      {"measurement": "Reversal of mechanical PWT", "setting": "[1]", "result": 27.6, "unit": "%"},
      {"measurement": "Reversal of mechanical PWT", "setting": "[2]", "result": 45.9, "unit": "%"},
      {"measurement": "IC50", "setting": "dopamine D2", "result": 10, "unit": "µM"}
    ]},
    {"smiles": "O=C(Cc1nccc(-n2cc(Cl)c3cc(Cl)cc(Cl)c32)n1)NC1COCC1O", "note": "(centres unmarked) [Compound 760]", "values": [
      {"measurement": "Effect on Bradykynin B1-2", "setting": "Bradykynin B1-2", "result": "no effect"}
    ]}
  ]
}
